Assay [1] in a line: NFkB reporter suppression in cystic fibrosis bronchial cells – cell-based, uHTS hits, panel, cytotoxicity readout, dose response (AID 624344). To be noted: CF bronchial epithelial cells, PAF-induced NFkB reporter inhibition; with PAF, mean of runs.
A further assay concerns Cytotoxicity. The description is as above. To be noted: CF bronchial epithelial cells, mean of runs.

Active and inactive are the calls of the source. The rule behind the calls is not given here. A value given as a limit tells only on which side of the number the result lay.

Broadly, the IC50 is the point on the concentration scale where inhibition reaches its midpoint. Regarding `Cc1ccc(C(=O)Nc2cccc(C(F)(F)F)c2)cc1NC(=O)c1cnnc2ccccc12`, the concentration for half-maximal inhibition (IC50) in assay [1] was 6.43 µM; in the assay with Cytotoxicity, 22.6 µM.
For the molecule `C[C@@H]1CN([C@H](C)CO)C(=O)c2cc(NC(=O)Nc3ccc(C(F)(F)F)cc3)ccc2O[C@H]1CN(C)S(=O)(=O)c1cccs1`, the figures for the IC50 (in assay [1]; in the assay with Cytotoxicity) were 5.41 µM and 54.9 µM (inactive), respectively.
For `O=[N+]([O-])c1cccc(NC(=S)Nc2nc(-c3ccccc3Cl)cs2)c1`, the half-maximal inhibitory concentration (IC50) in assay [1] was 6.59 µM; in the assay with Cytotoxicity it was 10.1 µM.
The corresponding values for `Cn1c(Oc2ccc(Cl)cc2)c(C=O)c2ccccc21` are 3.96 µM and 13.5 µM.
The corresponding values for `CCOC(=O)Cc1nnc2c(Nc3ccc(Cl)cc3)nc3nonc3n12` are 3.23 µM and 1.72 µM.
The matching figures for `NC(=O)N/N=C/c1c(Sc2nnnn2-c2ccccc2)nc2ccccn2c1=O`: 0.653 µM and 6.87 µM.
On to `COC1(OC)C=CC(=O)C=C1NC(=O)c1ccccc1OC(C)=O`, for which the half-inhibitory concentration (IC50) is 4.11 µM in assay [1] and 15.2 µM in the assay with Cytotoxicity.
`Cc1ccccc1S(=O)(=O)Cc1ccc(C(=O)N2CCN(c3cccc(C)c3C)CC2)o1`: the values for the half-maximal inhibitory concentration (IC50) (in assay [1]; in the assay on Cytotoxicity) were 11 µM and 25 µM, respectively.
Turning to `c1cc(-c2cnc3cccnn23)c2cccnc2c1`, the IC50 was 2.33 µM in assay [1] and > 79 µM (inactive) in the assay with Cytotoxicity.
The corresponding values for `Cn1cccc1C(=O)NC(=O)COC(=O)c1ccc(S(C)(=O)=O)c([N+](=O)[O-])c1` are 5.26 µM and 5.85 µM.
The matching figures for `FC(F)(F)c1nnc2c(Sc3ccc(Cl)cc3)nc3ccccc3n12`: 0.859 µM and 1.03 µM.
On to `O=C1NC(c2cccc3ccccc23)Nc2ccc(Cl)cc21` (centres undefined), for which the half-inhibitory concentration (IC50) in assay [1] is 8.66 µM; in the assay on Cytotoxicity, > 79 µM (inactive).
The matching figures for `c1ccc2c(-c3ccc4nncn4c3)cncc2c1`: 1.42 µM and > 79 µM (inactive).
Consider `CCOc1ccc(CCN2C(=S)N([C@@H](CC(C)C)CN3CCCC3CN3C(=S)NC[C@@H]3CC(C)C)C[C@@H]2Cc2ccc(O)cc2)cc1` (some centres undefined), for which the IC50 in assay [1] is 14.9 µM; in the assay on Cytotoxicity it was 64.1 µM (inactive).
The matching figures for `C=CCSc1nsc(NC(=O)Nc2cccc(C(C)=O)c2)n1`: 1.44 µM and 6.08 µM.
`COc1ccc(-c2cc(-c3nc4ccccn4c3NCc3ccccc3)ccc2OC)cc1`: the 50% inhibitory concentration (IC50) in assay [1] is 4.41 µM; with Cytotoxicity, 5.51 µM.
For the molecule `COc1ccc(-c2csc(NC3OC(=O)c4c3ccc(OC)c4OC)n2)cc1OC` (centres undefined), the 50% inhibitory concentration (IC50) is 3.12 µM in assay [1] and > 79 µM (inactive) in the assay on Cytotoxicity.
`CCOc1ccccc1NC(=O)c1nc(S(=O)(=O)Cc2ccccc2)ncc1Cl`: the IC50 in assay [1] is 1.83 µM; in the assay on Cytotoxicity it was 2.27 µM.
The matching figures for `Cc1[nH]nc2nc(SCC(=O)NCCC3=CCCCC3)n(-c3ccc(Br)cc3)c(=N)c12`: 8.27 µM and 6.73 µM.
Take `Cc1cc(C)c(O)c(CN(C)Cc2cc(Cl)cc(Cl)c2O)c1`: the results for the IC50 (in assay [1]; in the assay on Cytotoxicity) were 4.39 µM and 9.57 µM, respectively.
With `NC(=O)c1cc2ccc(O)cc2oc1=Nc1ccccc1`, the IC50 in assay [1] is 1.41 µM; in the assay on Cytotoxicity it was 44.8 µM.
The corresponding values for `COc1ccc(C(c2nnnn2-c2ccc(OC)cc2)N2CCC(n3c(=O)[nH]c4ccccc43)CC2)cc1` (centres undefined) are 5.8 µM and 11.7 µM.
In the case of `COCCCN=C1NN=C(c2cc(C)n(Cc3ccccc3Cl)c2C)CS1`, the IC50 entry in assay [1] was “inactive”. Also, the IC50 in the assay on Cytotoxicity is > 79 µM (inactive).
With `FC(F)Sc1ccc(NC(=S)NCC2CCCCC2)cc1`, the IC50 in assay [1] is 5.53 µM; in the assay on Cytotoxicity it was 7.18 µM.
For `COc1ccc(-c2cc(=O)oc3cc(OC(=O)C4CCCCC4)ccc23)cc1`, the results for the half-inhibitory concentration (IC50) (in assay [1]; with Cytotoxicity) were 2.37 µM and > 79 µM (inactive), respectively.
In the case of `COC(=O)c1ccc(-c2ccc(OC)c([C@H]3[C@H]4C=CC[C@@H](C)[C@@H]4C(=O)N3Cc3ccccc3)c2)cc1`, the 50% inhibitory concentration (IC50) in assay [1] was 2.4 µM; with Cytotoxicity, 29.8 µM.
For the molecule `O=C(Nc1ccc([N+](=O)[O-])cc1)Nc1ccc(Cl)cc1F`, the IC50 is 2.92 µM in assay [1] and 2.19 µM in the assay on Cytotoxicity.
Take `CCOC(=O)c1c(C)[nH]c(C(=O)N/N=C/c2ccc(Br)cc2)c1C`: the IC50 in assay [1] is 14.6 µM; in the assay on Cytotoxicity it was 45.9 µM.
On to `C=C1C(=O)C23C(O)C1CCC2C12COC3(O)C(O)C1C(C)(C)CCC2O` (centres undefined), for which the figures for the IC50 (in assay [1]; in the assay on Cytotoxicity) were 3.69 µM and 5.5 µM, respectively.
The matching figures for `COc1ccc(S(=O)(=O)N2c3ccc(F)cc3CCC2C)cc1` (centres undefined): “inactive” and > 79 µM (inactive).
As to `COc1cc2oc(=O)cc(-c3ccc(-c4ccc(N(C)C)cc4)cc3)c2c(OC)c1OC`, the IC50 is 11.6 µM in assay [1] and 39.9 µM with Cytotoxicity.
In the case of `O=c1[nH]c2ccccc2n1C1CCN(C(c2cccc3ccccc23)c2nnnn2Cc2ccccc2)CC1` (centres undefined), the figures for the concentration for half-maximal inhibition (IC50) (in assay [1]; in the assay with Cytotoxicity) were 3.25 µM and 10 µM, respectively.
The corresponding values for `O=C(Nc1nnc(S(=O)(=O)N2CCCCCC2)s1)c1cccc(Br)c1` are 2.68 µM and 7.27 µM.
The corresponding values for `COc1ccc(-n2nnnc2C(CCc2ccccc2)N2CCC(n3c(=O)[nH]c4ccccc43)CC2)cc1` (centres undefined) are 6.25 µM and 11.1 µM.
Turning to `Cc1cccc(C)c1NS(=O)(=O)c1ccc(-c2cnc(C3CC3)o2)cc1`, the half-inhibitory concentration (IC50) was 11.8 µM in assay [1] and 35 µM in the assay on Cytotoxicity.
On to `COc1ccc(-c2cnc(N)nc2-c2ccc(OC)cc2O)cc1`, for which the values for the concentration for half-maximal inhibition (IC50) (in assay [1]; in the assay on Cytotoxicity) were 4.66 µM and 36.5 µM, respectively.
The matching figures for `COc1cccc(N2CCN(c3c(C#N)c(C(F)(F)F)nn3C)CC2)c1`: 2.27 µM and 58.4 µM (inactive).
As for `Cc1nnc(Sc2nc3ccccc3o2)c2ccccc12`, the 50% inhibitory concentration (IC50) was 6.57 µM in assay [1] and 5.61 µM in the assay with Cytotoxicity.
The matching figures for `O=C(NCc1ccccc1)C1=C[C@H](c2csc3ccccc23)C[C@H](OCc2ccc(CO)cc2)O1`: “inactive” and 12.8 µM.
The corresponding values for `CCOc1ccc(-n2cc(-c3ccccc3)c3c(N4CCOCC4)ncnc32)cc1` are 3.99 µM and 7.28 µM.
With `Cc1ncc(CO)c2c1Oc1nc(-c3ccccc3F)nc(SCC(=O)N(C)c3ccccc3)c1C2`, the IC50 in assay [1] was 4.17 µM; in the assay on Cytotoxicity it was 11.3 µM.
The corresponding values for `Cc1ccc(C(=O)c2cncc(Br)c2)cc1` are 13 µM and > 79 µM (inactive).
Take `CCOc1ccccc1NC(=S)Nc1ccc2cn[nH]c2c1`: the figures for the IC50 (in assay [1]; in the assay with Cytotoxicity) were 5.7 µM and 58.5 µM (inactive), respectively.
The corresponding values for `COc1ccc2c(=O)cc(-c3ccncc3)oc2c1OC` are 3.97 µM and 13.6 µM.
The matching figures for `COC(=O)N1C(=O)[C@@](c2ccc(OC)cc2)(C(C)C)N1C(=O)OC`: 4.72 µM and 49.1 µM.
On to `CCc1cc(SC#N)cc(C)c1NC(=O)CCl`, for which the figures for the IC50 (in assay [1]; in the assay on Cytotoxicity) were 5.47 µM and 43.5 µM, respectively.
The matching figures for `Cc1c(-c2ccccc2)oc2c(C(=O)N3CCN(c4ccc([N+](=O)[O-])cc4)CC3)cccc2c1=O`: 0.854 µM and > 79 µM (inactive).
Consider `O=C(NCc1cccnc1)/C(=C\c1ccc(-c2cccc(Cl)c2)o1)S(=O)(=O)c1ccccc1`, for which the IC50 in assay [1] is 1.71 µM; in the assay on Cytotoxicity, 5.33 µM.
`NS(=O)(=O)c1ccc(CCNc2nn3c(-c4cccc(OC(F)(F)F)c4)cnc3s2)cc1`: the results for the concentration for half-maximal inhibition (IC50) (in assay [1]; with Cytotoxicity) were 3.64 µM and 19.7 µM, respectively.
For the molecule `O=C(Nc1cccc(S(=O)(=O)N2CCCCC2)c1)Nc1ccc(Cl)cc1Cl`, the 50% inhibitory concentration (IC50) was 8.83 µM in assay [1] and 10.6 µM with Cytotoxicity.
With `COc1ccc(-c2oc3ccc(-c4ccc(OC)nc4)cc3c2C#CC2(O)CCCCC2)cc1`, the IC50 is 6.05 µM in assay [1] and 14.4 µM in the assay with Cytotoxicity.
As to `COc1cc(-c2cnc3c(NC=O)cc(-c4ccc(C)cc4)cn23)cc(OC)c1OC`, the IC50 in assay [1] was > 79 µM (inactive); with Cytotoxicity, 22 µM.
Take `COc1ccc(C(=O)N[C@H](C(=O)Nc2nc3ccccc3[nH]2)C(C)C)cc1`: the concentration for half-maximal inhibition (IC50) in assay [1] is 14.6 µM; with Cytotoxicity, > 79 µM (inactive).
The matching figures for `NC(N)=NN=C(c1ccc(F)cc1)c1ccc(C(F)(F)F)cc1`: 5.87 µM and 25.3 µM.
As to `O=C1NCCc2c1[nH]c1c(Cl)ccc(Cl)c21`, the figures for the concentration for half-maximal inhibition (IC50) (in assay [1]; in the assay on Cytotoxicity) were 1.54 µM and 11 µM, respectively.
The corresponding values for `O=S(=O)(c1ccc(Br)cc1)c1cnc2ccccc2n1` are 6.57 µM and 7.65 µM.
With `Cc1ccc2occ(/C=N/NC(=O)c3ccccc3Br)c(=O)c2c1`, the IC50 in assay [1] was 4.98 µM; in the assay with Cytotoxicity, 40.4 µM.
In the case of `Cc1ccc(NS(=O)(=O)c2ccc(-c3cnc(C4CC4)o3)cc2)c(C)c1`, the half-maximal inhibitory concentration (IC50) in assay [1] is 14.2 µM; in the assay on Cytotoxicity, 32.5 µM.
The corresponding values for `CC1CCc2c(sc3ncnc(N4CCOCC4)c23)C1` (centres undefined) are 4.1 µM and 20.4 µM.
In the case of `COc1ccc2[nH]c(=O)c(CN(Cc3cccnc3)S(=O)(=O)c3ccccc3F)cc2c1`, the values for the IC50 (in assay [1]; in the assay on Cytotoxicity) were 2.1 µM and 3.68 µM, respectively.
The corresponding values for `COc1cc(O)cc2cc3c(c(O)c12)C(=O)CC(C)(O)O3` (centres undefined) are 4.17 µM and 45.5 µM.
On to `N#CC1c2ccccc2-n2nncc2CN1Cc1cc(Cl)cc(Cl)c1` (centres undefined), for which the figures for the IC50 (in assay [1]; in the assay with Cytotoxicity) were 2.16 µM and 1.6 µM, respectively.

(Values after PubChem BioAssay AID624344 (Sanford-Burnham Center for Chemical Genomics, 2012).)
